Measurements: patent publication US10681909B2, “Herbicidal triazoles” (FMC Corporation, priority 2014, dated 2020)

Legend:
chickweed = experiment: Test C postemergence; type: in vivo, Stellaria media
Procedure, shortened: (§1)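 Seeds were planted in loam soil plus sand and sprayed preemergence. In parallel, potted plants in a peat-based medium were sprayed postemergence at 2 to 18 cm (1- to 4-leaf stage). Compounds were formulated in non-phytotoxic solvent with surfactant.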

pigweed [1] = experiment: Test A preemergence; type: in vivo, Amaranthus retroflexus; details: 0 to 100 scale (0 no effect, 100 complete control)
Procedure, shortened: (§2)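 Herbicidal response was scored on plants treated pre- or postemergence with surfactant-containing, non-phytotoxic solvent formulations. Preemergence meant a directed spray onto soil (loam–sand) holding sown seed; postemergence plants were at one to two leaves.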

oat, wild = experiment: Test C postemergence; type: in vivo, Avena fatua
Procedure, shortened: as §1

blackgrass = experiment: Test C postemergence; type: in vivo, Alopecurus myosuroides
Procedure, shortened: as §1

pigweed [2] = experiment: Test C postemergence; type: in vivo, Amaranthus retroflexus
Procedure, shortened: as §1

lambsquarters = experiment: Test C postemergence; type: in vivo, Chenopodium album
Procedure, shortened: as §1

johnsongrass = experiment: Test C postemergence; type: in vivo, Sorghum halepense
Procedure, shortened: as §1

galium = experiment: Test C postemergence; type: in vivo, Galium aparine
Procedure, shortened: as §1

rice = experiment: Test B flooded paddy test; type: in vivo, Oryza sativa; details: 250 g ai/ha, applied to paddy water at 2-leaf stage, visual rating after 13 to 15 d, scale 0 (no effect) to 100 (complete control)
Procedure, shortened: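 Pots were flooded to 3 cm above the soil at treatment, and compounds were applied directly into the paddy water. That depth was held throughout. After 13 to 15 d in a greenhouse, plants were rated visually against untreated controls.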

foxtail, giant = experiment: Test A preemergence; type: in vivo, Setaria faberii; details: 0 to 100 scale (0 no effect, 100 complete control)
Procedure, shortened: as §2

wheat (winter wheat) = experiment: Test C postemergence; type: in vivo, Triticum aestivum
Procedure, shortened: as §1

ryegrass, Ital. = experiment: Test D preemergence; type: in vivo, Lolium multiflorum; details: for Plant response rating: Ryegrass, Ital.: scale 0 to 100
Procedure, shortened: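 Both application timings used one formulation, a non-phytotoxic solvent mixture with surfactant. Preemergence pots held silt loam, and postemergence plants grew in peat moss/vermiculite medium to the 1- to 4-leaf stage. All plants were held under controlled conditions for 14 to 21 d before visual scoring relative to controls.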

soybean = experiment: Test C postemergence; type: in vivo, Glycine max
Procedure, shortened: as §1

With `FC(F)(F)COc1nc(-c2ccc(Cl)cc2)nn1Cc1ccnc(C(F)(F)F)c1` [Compound 31] the “Plant response rating (scale of 0 to 100 where 0 is no effect and 100 is complete control)” value (chickweed; 31 g ai/ha) was 90, the “Plant response rating (scale of 0 to 100 where 0 is no effect and 100 is complete control)” value (chickweed; 62 g ai/ha) was 95 and the “Plant response rating (scale of 0 to 100 where 0 is no effect and 100 is complete control)” value (chickweed; 125 g ai/ha) was 95. The “Plant response rating (scale of 0 to 100 where 0 is no effect and 100 is complete control)” value (chickweed; 250 g ai/ha) was 95, the “Plant response rating, Pigweed” value (pigweed [1]; 125 g ai/ha) was 100 and the “Plant response rating, Pigweed” value (pigweed [1]; 500 g ai/ha, approx. 10 d) was 100. The “Plant response rating (scale of 0 to 100 where 0 is no effect and 100 is complete control)” value (oat, wild; 31 g ai/ha) was 30, the “Plant response rating (scale of 0 to 100 where 0 is no effect and 100 is complete control)” value (oat, wild; 62 g ai/ha) was 35 and the “Plant response rating (scale of 0 to 100 where 0 is no effect and 100 is complete control)” value (oat, wild; 125 g ai/ha) was 80. The “Plant response rating (scale of 0 to 100 where 0 is no effect and 100 is complete control)” value (oat, wild; 250 g ai/ha) was 80, the “Plant response rating (scale of 0 to 100 where 0 is no effect and 100 is complete control)” value (blackgrass; 31 g ai/ha) was 35 and the “Plant response rating (scale of 0 to 100 where 0 is no effect and 100 is complete control)” value (blackgrass; 62 g ai/ha) was 50. The “Plant response rating (scale of 0 to 100 where 0 is no effect and 100 is complete control)” value (blackgrass; 125 g ai/ha) was 60, the “Plant response rating (scale of 0 to 100 where 0 is no effect and 100 is complete control)” value (blackgrass; 250 g ai/ha) was 80 and the “Plant response rating (scale of 0 to 100 where 0 is no effect and 100 is complete control)” value (pigweed [2]; 31 g ai/ha) was 95. The “Plant response rating (scale of 0 to 100 where 0 is no effect and 100 is complete control)” value (pigweed [2]; 62 g ai/ha) was 98, the “Plant response rating (scale of 0 to 100 where 0 is no effect and 100 is complete control)” value (pigweed [2]; 125 g ai/ha) was 100 and the “Plant response rating (scale of 0 to 100 where 0 is no effect and 100 is complete control)” value (pigweed [2]; 250 g ai/ha) was 98. The “Plant response rating (scale of 0 to 100 where 0 is no effect and 100 is complete control)” value (lambsquarters; 31 g ai/ha) was 98, the “Plant response rating (scale of 0 to 100 where 0 is no effect and 100 is complete control)” value (lambsquarters; 62 g ai/ha) was 100 and the “Plant response rating (scale of 0 to 100 where 0 is no effect and 100 is complete control)” value (lambsquarters; 125 g ai/ha) was 100. For the same compound, the “Plant response rating (scale of 0 to 100 where 0 is no effect and 100 is complete control)” value (lambsquarters; 250 g ai/ha) was 100, the “Plant response rating (scale of 0 to 100 where 0 is no effect and 100 is complete control)” value (johnsongrass; 31 g ai/ha) was 35 and the “Plant response rating (scale of 0 to 100 where 0 is no effect and 100 is complete control)” value (johnsongrass; 62 g ai/ha) was 25. For the same compound, the “Plant response rating (scale of 0 to 100 where 0 is no effect and 100 is complete control)” value (johnsongrass; 125 g ai/ha) was 40, the “Plant response rating (scale of 0 to 100 where 0 is no effect and 100 is complete control)” value (johnsongrass; 250 g ai/ha) was 70 and the “Plant response rating (scale of 0 to 100 where 0 is no effect and 100 is complete control)” value (galium; 31 g ai/ha) was 80. For the same compound, the “Plant response rating (scale of 0 to 100 where 0 is no effect and 100 is complete control)” value (galium; 62 g ai/ha) was 80, the “Plant response rating (scale of 0 to 100 where 0 is no effect and 100 is complete control)” value (galium; 125 g ai/ha) was 80 and the “Plant response rating (scale of 0 to 100 where 0 is no effect and 100 is complete control)” value (galium; 250 g ai/ha) was 80. The “Plant response rating, Rice, Flood” value (rice) was 35, the “Plant response rating, Foxtail, Giant” value (foxtail, giant; 125 g ai/ha) was 100 and the “Plant response rating, Foxtail, Giant” value (foxtail, giant; 500 g ai/ha, approx. 10 d) was 100. For the same compound, the “Plant response rating (scale of 0 to 100 where 0 is no effect and 100 is complete control)” value (wheat (winter wheat); 31 g ai/ha) was 5, the “Plant response rating (scale of 0 to 100 where 0 is no effect and 100 is complete control)” value (wheat (winter wheat); 62 g ai/ha) was 5 and the “Plant response rating (scale of 0 to 100 where 0 is no effect and 100 is complete control)” value (wheat (winter wheat); 125 g ai/ha) was 10. For the same compound, the “Plant response rating (scale of 0 to 100 where 0 is no effect and 100 is complete control)” value (wheat (winter wheat); 250 g ai/ha) was 20, the “Plant response rating (0 to 100), Ryegrass, Ital.” value (ryegrass, Ital.; 16 g ai/ha, 0 is no effect, 100 is complete control) was 40 and the “Plant response rating: Ryegrass, Ital.” value (ryegrass, Ital.; 62 g ai/ha) was 50. The “Plant response rating: Ryegrass, Ital.” value (ryegrass, Ital.; 125 g ai/ha) was 100, the “Plant response rating (scale of 0 to 100 where 0 is no effect and 100 is complete control)” value (soybean; 31 g ai/ha) was 40 and the “Plant response rating (scale of 0 to 100 where 0 is no effect and 100 is complete control)” value (soybean; 62 g ai/ha) was 65. For the same compound, the “Plant response rating (scale of 0 to 100 where 0 is no effect and 100 is complete control)” value (soybean; 125 g ai/ha) was 35 and the “Plant response rating (scale of 0 to 100 where 0 is no effect and 100 is complete control)” value (soybean; 250 g ai/ha) was 65.
